# Test results as given in patent US20150126368A1, “METHOD OF PROVIDING PLANT WITH STRESS RESISTANCE” (Nippon Soda Co., Ltd., priority 2012, published 2015).
# Read-outs that look alike come from different tables or passages of the source.
# How the values were obtained:
# [1] = system: tomato yellow leaf curl virus (TYLCV); experiment: Test for symptom relief effects against tomato yellow leaf curl virus disease; type: in vivo; settings: 500 ppm alone
# Experimental: N,N-dimethylformamide based solutions were prepared according to the formulations shown in Table 18 to give chemical liquids for the tests.
# Tomato nursery plants (breed: Momotaro) grown up to the 8 leaf stage in a greenhouse were prepared.
# Tomato nursery plants suffering from tomato yellow leaf curl virus (TYLCV) were used as inoculation sources.
# A diseased plant was obliquely cut in round slices at the stem, and graft-inoculated to a tomato nursery plant. In order to prevent dryness, parafilm was wrapped around the grafted portion for protection.
# After the graft inoculation, the above chemical solution was sprayed on the stem and leaf part of the tomato nursery plant in a sufficient amount. Then, the above chemical solution was sprayed 3 times at intervals of about one week in a sufficient amount. Symptoms of tomato yellow leaf curl disease were investigated at an elapsed time of 25 days.
# Symptoms were evaluated by 5 levels of onset indices of 0 (with no onset) to 4 (fulminant).
# Onset inhibition percentages as compared with a region treated with solvent DMF only (Chemical solution 3) were computed by the following formula.
# Onset inhibition percentage=(onset index of region treated with solvent only)−(onset index of each treatment region))/(onset index of region treated with solvent only)×100
# Further, the expectation values of onset inhibition percentages were computed based on the Colby's equation.
# The Colby's equation is E=M+N−MN/100. In the equation, E represents the expectation value of an onset inhibition percentage (%), and M represents an onset inhibition percentage (%) calculated from measurements when the substance (A1) is used alone, and N represent an onset inhibition percentage (%) calculated from measurements when the substance (A2) is used alone.
# [2] = system: Tomato nursery plants (breed: Momotaro); type: in vivo; settings: spray, 7 days; for phytotoxicity index: index 0 to 10
# Experimental: N,N-dimethylformamide based solutions were prepared according to the formulations shown in Table 10 to give chemical solutions for the tests.
# Tomato nursery plants (breed: Momotaro) grown up to the 4 leaf stage in a greenhouse were prepared.
# The above chemical solution was sprayed to the stem and leaf parts of the above tomato nursery plants in an amount of liquid dropping, and then air dried. They were allowed to grow for 7 days under the average temperature and humidity conditions on March in Japan.
# Subsequently, phytotoxicity such as a degree of leaf browning and outgrowth inhibition was investigated.
# Phytotoxicity was evaluated by 11 levels of phytotoxicity indices of 0 (with no disorder) to 10 (withering to death).
# Chemical poisoning injury relief percentages as compared with a region treated with solvent DMF only were computed by the following formula.
# Chemical poisoning injury relief percentage=(phytotoxicity index of region treated with solvent only)−(phytotoxicity index of each treated region))/(phytotoxicity index of region treated with solvent only)×100
# [3] = agric. chemical 100 ppm alone (reference)
# [4] = agric. chemical 200 ppm alone (reference)
Compound,"Onset percentage(%) ([1]; tomato graft-inoculated, sprayed 4 times, 25 days)","Onset inhibition percentage(%) ([1]; vs solvent DMF only, 25 days)",Expectation value(%) ([1]; expectation value of onset inhibition percentage),"relief percents of phytotoxicity (%) [2, 3] [%]",phytotoxicity index ([2]; agric. chemical 100 ppm alone),"relief percents of phytotoxicity (%) [2, 4] [%]",phytotoxicity index ([2]; agric. chemical 200 ppm alone)
O=C1O[C@H]([C@@H](O)CO)C(O)=C1O[C@H]1O[C@H](CO)[C@@H](O)[C@H](O)[C@H]1O [Ascorbyl glucoside],40,20,20,–,–,–,–
CO/C=C(/C(=O)OC)c1ccccc1Oc1cc(Oc2ccccc2C#N)ncn1 [Azoxystrobin],–,–,–,0,5,0,6
O=[N+]([O-])c1cc(C(F)(F)F)c(Cl)c([N+](=O)[O-])c1Nc1ncc(C(F)(F)F)cc1Cl [Fluazinam],–,–,–,0,6,0,6
